PMC9120017, “Inhibition mechanism of the chloride channel TMEM16A by the pore blocker 1PBC” (Nature Communications, 2022)
Read-outs that look alike come from different tables or passages of the source.

Target: T1, mouse TMEM16A mutant T539A (Mus musculus, UniProt Q8BHY3, T539A)
T1 construct: expressed in transfected cells; host or cells: HEK293T
T1 sequence (Q8BHY3 1-960 T539A): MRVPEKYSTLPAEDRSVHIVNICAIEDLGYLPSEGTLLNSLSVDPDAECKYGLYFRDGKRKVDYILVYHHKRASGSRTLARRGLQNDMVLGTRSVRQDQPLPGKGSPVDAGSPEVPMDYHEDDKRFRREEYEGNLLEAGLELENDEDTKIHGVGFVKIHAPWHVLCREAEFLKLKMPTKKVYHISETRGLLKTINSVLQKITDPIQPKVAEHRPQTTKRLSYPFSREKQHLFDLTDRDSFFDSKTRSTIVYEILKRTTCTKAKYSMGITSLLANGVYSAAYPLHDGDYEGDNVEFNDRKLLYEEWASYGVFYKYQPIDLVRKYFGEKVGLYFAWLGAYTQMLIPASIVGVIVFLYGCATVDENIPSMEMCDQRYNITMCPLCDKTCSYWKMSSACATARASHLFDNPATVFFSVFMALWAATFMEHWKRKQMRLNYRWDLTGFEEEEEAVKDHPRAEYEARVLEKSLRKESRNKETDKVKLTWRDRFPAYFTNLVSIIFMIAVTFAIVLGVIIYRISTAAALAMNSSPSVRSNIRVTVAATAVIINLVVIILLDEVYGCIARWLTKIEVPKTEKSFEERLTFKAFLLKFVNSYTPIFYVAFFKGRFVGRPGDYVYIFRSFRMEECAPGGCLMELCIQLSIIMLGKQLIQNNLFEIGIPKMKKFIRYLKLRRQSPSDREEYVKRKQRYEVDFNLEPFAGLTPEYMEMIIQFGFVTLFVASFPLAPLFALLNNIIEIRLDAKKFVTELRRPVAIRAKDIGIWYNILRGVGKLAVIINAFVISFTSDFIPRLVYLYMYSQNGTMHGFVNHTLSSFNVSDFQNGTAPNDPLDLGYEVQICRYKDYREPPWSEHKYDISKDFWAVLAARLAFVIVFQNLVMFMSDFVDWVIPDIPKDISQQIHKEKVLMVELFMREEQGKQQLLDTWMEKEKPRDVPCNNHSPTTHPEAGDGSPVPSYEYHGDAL
Test: Inside-out patch recording of 1PBC block, mutant T539A
Assay type: cell-based
Conditions: for remaining activity at 100 µM: 100 µM 1PBC
Procedure: HEK293T cells (ATCC CRL-1573) were maintained in Dulbecco’s modified Eagle’s medium (DMEM; Sigma-Aldrich) supplemented with 10 U ml^−1 penicillin, 0.1 mg ml^−1 streptomycin (Sigma-Aldrich), 2 mM L-glutamine (Sigma-Aldrich), and 10% FBS (Sigma-Aldrich) in a humidified atmosphere containing 5% CO2 at 37 °C. HEK293S GnTI^− cells (ATCC CRL-3022) were maintained in HyClone HyCell TransFx-H medium (GE Healthcare) supplemented with 10 U ml^−1 penicillin, 0.1 mg ml^−1 streptomycin, 4 mM L-glutamine, 0.15% poloxamer 188 (Sigma-Aldrich), and 1% FBS in an atmosphere containing 5% CO2 at 185 rpm at 37 °C. The ac splice variant of mouse TMEM16A (UniProt ID: Q8BHY3), mouse TMEM16B (UniProt ID: Q8CFW1), or mouse TMEM16F (UniProt ID: Q6P9J9) bearing a 3C cleavage site, a Venus YFP, a Myc tag, and a Streptavidin-binding peptide (SBP) downstream of the open reading frame in a modified pcDNA3.1 vector (Invitrogen) were used as described previously[21],[31]. Mutations were introduced using a modified QuikChange method[58] and were verified by sequencing.
HEK293T cells were transfected with 3–4 μg DNA per 6 cm Petri dish using the calcium phosphate co-precipitation method and were used within 24–96 h after transfection. Recordings were performed on inside-out patches excised from HEK293T cells expressing the construct of interest. Patch pipettes were pulled from borosilicate glass capillaries (O.D. 1.5 mm, I.D. 0.86 mm, Sutter Instrument) and were fire-polished with a microforge (Narishige) before use. Pipette resistance was typically 3–8 MΩ when filled with the recording solutions detailed below. Seal resistance was typically 4 GΩ or higher. Voltage-clamp recordings were made using Axopatch 200B, Digidata 1550, and Clampex 10.7 (Molecular Devices). Analog signals were filtered with the in-built 4-pole Bessel filter at 10 kHz and were digitized at 20 kHz. Solution exchange was achieved using a gravity-fed system through a theta glass pipette mounted on an ultra-fast piezo-driven stepper (Siskiyou). […] All recordings were performed at 20 °C.
A symmetrical ionic condition was used throughout. Stock solution with Ca^2+-EGTA contained 150 mM NaCl, 5.99 mM Ca(OH)2, 5 mM EGTA, and 10 mM HEPES at pH 7.40. Stock solution with EGTA contained 150 mM NaCl, 5 mM EGTA, and 10 mM HEPES at pH 7.40. Free Ca^2+ concentrations were adjusted by mixing the stock solutions at the required ratios calculated using the WEBMAXC program (http://web.stanford.edu/~cpatton/webmaxcS.htm). Patch pipettes were filled with the stock solution with Ca^2+-EGTA, which has a free Ca^2+ concentration of 1 mM. 1PBC (ChemBridge) stock was reconstituted in anhydrous DMSO (Sigma-Aldrich) at 100 mM and stored at −20 °C. Working solutions with 1PBC were prepared by serial dilution. Unless otherwise stated, experiments were performed at a saturating Ca^2+ concentration as shown in Supplementary Table 1 and the primary data were corrected for current rundown as described previously[21],[25].
Concentration-response relations, obtained from the ratio of the I-V plots before and after the application of the blocker, were fitted to the Hill equation,1 I/Imax=1/1+IC50/[blocker]^h where I/Imax is the normalized current responses, IC50 defines the concentration at which inhibition is at its half-maximum, and h is the Hill coefficient.

N#Cc1c(C(F)(F)F)cc(O)n2c1nc1ccccc12 [1PBC]
IC50 (0 mV, 2 µM Ca2+): 14.9 µM
remaining activity at 3 µM (3 µM 1PBC, +80 mV, saturating Ca2+ (2 µM), read-out: I/Imax): 77.1%
remaining activity at 3 µM (3 µM 1PBC, -80 mV, saturating Ca2+ (2 µM), read-out: I/Imax): 91.4%
remaining activity at 10 µM (10 µM 1PBC, +80 mV, saturating Ca2+ (2 µM), read-out: I/Imax): 45.4%
remaining activity at 10 µM (10 µM 1PBC, -80 mV, saturating Ca2+ (2 µM), read-out: I/Imax): 71.2%
remaining activity at 30 µM (30 µM 1PBC, +80 mV, saturating Ca2+ (2 µM), read-out: I/Imax): 23.5%
remaining activity at 30 µM (30 µM 1PBC, -80 mV, saturating Ca2+ (2 µM), read-out: I/Imax): 49.4%
remaining activity at 100 µM (+80 mV, saturating Ca2+ (2 µM), read-out: I/Imax): 8.95%
remaining activity at 100 µM (-80 mV, saturating Ca2+ (2 µM), read-out: I/Imax): 25%
remaining activity at 3 µM (1PBC 3, 0 mV, read-out: fraction of unblocked current): 85.3%
remaining activity at 3 µM (1PBC 3, 20 mV, read-out: fraction of unblocked current): 83.3%
remaining activity at 3 µM (1PBC 3, 40 mV, read-out: fraction of unblocked current): 80.1%
remaining activity at 3 µM (1PBC 3, 60 mV, read-out: fraction of unblocked current): 78.3%
remaining activity at 3 µM (1PBC 3, 80 mV, read-out: fraction of unblocked current): 77.1%
remaining activity at 3 µM (1PBC 3, 100 mV, read-out: fraction of unblocked current): 77.2%
remaining activity at 3 µM (1PBC 3, 120 mV, read-out: fraction of unblocked current): 77.7%
remaining activity at 3 µM (1PBC 3, 140 mV, read-out: fraction of unblocked current): 79.8%
remaining activity at 3 µM (1PBC 3, -20 mV, read-out: fraction of unblocked current): 87.2%
remaining activity at 3 µM (1PBC 3, -40 mV, read-out: fraction of unblocked current): 88.4%
remaining activity at 3 µM (1PBC 3, -60 mV, read-out: fraction of unblocked current): 90%
remaining activity at 3 µM (1PBC 3, -80 mV, read-out: fraction of unblocked current): 91.4%
remaining activity at 3 µM (1PBC 3, -100 mV, read-out: fraction of unblocked current): 92.2%
remaining activity at 3 µM (1PBC 3, -120 mV, read-out: fraction of unblocked current): 93.2%
remaining activity at 3 µM (1PBC 3, -140 mV, read-out: fraction of unblocked current): 93.5%
remaining activity at 10 µM (1PBC 10, 0 mV, read-out: fraction of unblocked current): 56.5%
remaining activity at 10 µM (1PBC 10, 20 mV, read-out: fraction of unblocked current): 53.9%
remaining activity at 10 µM (1PBC 10, 40 mV, read-out: fraction of unblocked current): 50.2%
remaining activity at 10 µM (1PBC 10, 60 mV, read-out: fraction of unblocked current): 47.6%
remaining activity at 10 µM (1PBC 10, 80 mV, read-out: fraction of unblocked current): 45.4%
remaining activity at 10 µM (1PBC 10, 100 mV, read-out: fraction of unblocked current): 44.7%
remaining activity at 10 µM (1PBC 10, 120 mV, read-out: fraction of unblocked current): 45.3%
remaining activity at 10 µM (1PBC 10, 140 mV, read-out: fraction of unblocked current): 47%
remaining activity at 10 µM (1PBC 10, -20 mV, read-out: fraction of unblocked current): 59.1%
remaining activity at 10 µM (1PBC 10, -40 mV, read-out: fraction of unblocked current): 63.7%
remaining activity at 10 µM (1PBC 10, -60 mV, read-out: fraction of unblocked current): 67.6%
remaining activity at 10 µM (1PBC 10, -80 mV, read-out: fraction of unblocked current): 71.2%
remaining activity at 10 µM (1PBC 10, -100 mV, read-out: fraction of unblocked current): 73.9%
remaining activity at 10 µM (1PBC 10, -120 mV, read-out: fraction of unblocked current): 76.5%
remaining activity at 10 µM (1PBC 10, -140 mV, read-out: fraction of unblocked current): 78.6%
remaining activity at 30 µM (1PBC 30, 0 mV, read-out: fraction of unblocked current): 34.9%
remaining activity at 30 µM (1PBC 30, 20 mV, read-out: fraction of unblocked current): 31%
remaining activity at 30 µM (1PBC 30, 40 mV, read-out: fraction of unblocked current): 27.7%
remaining activity at 30 µM (1PBC 30, 60 mV, read-out: fraction of unblocked current): 25.4%
remaining activity at 30 µM (1PBC 30, 80 mV, read-out: fraction of unblocked current): 23.5%
remaining activity at 30 µM (1PBC 30, 100 mV, read-out: fraction of unblocked current): 22.5%
remaining activity at 30 µM (1PBC 30, 120 mV, read-out: fraction of unblocked current): 21.8%
remaining activity at 30 µM (1PBC 30, 140 mV, read-out: fraction of unblocked current): 22.4%
remaining activity at 30 µM (1PBC 30, -20 mV, read-out: fraction of unblocked current): 38.8%
remaining activity at 30 µM (1PBC 30, -40 mV, read-out: fraction of unblocked current): 42.4%
